Assay results reported in ChEMBL document CHEMBL1150728, “Antimalarial agents, 4. Synthesis of a brusatol analog and biological activity of brusatol-related compounds” (1987).
In brackets after ≈: the same amount, converted by molar mass.

What follows are molecules tested on Plasmodium falciparum (assay: Antimicrobial activity against chloroquine-resistant Plasmodium falciparum Smith). Conditions: read-out: ED50 (the source's name).
Type: functional

Question: With COC(=O)[C@]12OC[C@]34[C@H]([C@@H](O)[C@@H]1O)[C@@]1(C)CC(=O)C(O)=C(C)[C@@H]1C[C@H]3OC(=O)[C@H](OC(=O)C=C(C)C)[C@@H]24 [BRUSATOL] as the molecule, how does the EC50 read?
Answer: Its EC50 is 0.00758 µg/mL (≈ 0.0146 µM).

Question: With COC(=O)[C@@]12OC[C@]34[C@H]([C@@H](O)[C@@H]1O)[C@@]1(C)CC(=O)C(O)=C(C)[C@@H]1C[C@H]3OC(=O)[C@H](O)[C@@H]24 [BRUCEOLIDE] as the molecule, how does the EC50 read?
Answer: Its EC50 is 0.0752 µg/mL (≈ 0.172 µM).

Question: For COC(=O)[C@@]12OC[C@]34[C@H]([C@@H](O)[C@@H]1O)[C@@]1(C)C=C(O[C@@H]5O[C@H](CO)[C@@H](O)[C@H](O)[C@H]5O)C(=O)[C@@H](C)[C@@H]1C[C@H]3OC(=O)[C@H](OC(=O)C=C(C)C)[C@@H]24 [BRUCEOSIDE A], which EC50 is on record?
Answer: Its EC50 is 0.581 µg/mL (≈ 0.851 µM).

Question: Which EC50 does the source give for CCCCCC/C=C/C(=O)O[C@H]1C(=O)O[C@@H]2C[C@H]3C(C)=C(O)C(=O)C[C@]3(C)[C@H]3[C@@H](O)[C@H](O)[C@@]4(C(=O)OC)OC[C@]32[C@@H]14 here?
Answer: The EC50 was 0.0617 µg/mL (≈ 0.107 µM).
